Tests used:
[1] = tested on: Southern Root Knot Nematode (Meloidogyne incognita); experiment: Drench test in tomato: nematicidal activity (percentage of gall reduction); assay type: in vivo; conditions: 10 mg per plant at transplanting; 3,000 Meloidogyne incognita per 100 cm^3 of soil
Description: (§1) To prepare a suitable dosage form the formulated product PL251 (liquid formulation of P. lilacinum comprising BREAK-THRU® S240 and AEROSIL®) is diluted with water to the desired concentration.
(§2) A quantity of 5,000 cm^3 of sandy loam soil, pH 6.8 per pot is mixed with 150,000 infective units (mixed population of eggs and juveniles) of the Southern Root Knot Nematode (Meloidogyne incognita). The desired concentration of Purpureocillium lilacinum strain 251 is drenched in 400 mL of solution (application A) to obtain 80% field capacity. Pots are incubated at 25° C. until transplanting of tomato seedlings (Lycopersicon lycopersicum) at 7 days after drench application A. At the day of transplanting a second drench application (application B) is carried out with 400 mL of solution.
(§3) After transplanting of tomato seedlings several post-plant application patterns are tested using 400 mL of solution per application (Table A).
(§4) In addition, 10 mg of the nematicide fluopyram (VELUM® PRIME, suspension concentrate SC 400) is applied at transplanting and used as a chemical reference. The non-treated control (UTC) is drenched with 400 mL of water at each application. […]
(§5) After the specified period the nematicidal activity is determined on the basis of the percentage of gall reduction. […] Moreover the shoot biomass is also determined to assess the overall plant health status. […]

[2] = tested on: tomato seedlings (Lycopersicon lycopersicum); experiment: Drench test in tomato: shoot biomass (plant health); assay type: in vivo; conditions: 10 mg fluopyram/plant at transplanting
Description: as §1, §2, §3, §4, §5

O=C(NCCc1ncc(C(F)(F)F)cc1Cl)c1ccccc1C(F)(F)F [fluopyram]
nematicidal activity (percentage of gall reduction) [1]: excellent biocontrol activity | shoot fresh weight vs UTC (ANOVA, Bonferroni) [2]: significant improvement of shoot fresh weight
